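Test compounds were applied to cells in 96-well plates for 48 hours at 5 doses. GI50 marks 50% less growth.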 Active and inactive are the calls of the source. Rule as the data show it: active = GI50 up to about 1.1 µM and inactive = higher.
Columns and labels:
Experiment in all cases: NCI-60 cell line screen, 48 h
[1] = tested on: ACHN
[2] = tested on: COLO 205
[3] = tested on: DMS-114
[4] = tested on: IGROV-1
[5] = tested on: KM12
[6] = tested on: LOX IMVI
[7] = tested on: M14
[8] = tested on: NCI-H522
[9] = tested on: RPMI-8226
[10] = tested on: SNB-75
[11] = tested on: SNB-78
[12] = tested on: TK-10
[13] = tested on: XF498
[14] = tested on: HCT-116
[15] = tested on: HOP-92
[16] = tested on: M19-MEL
[17] = tested on: MCF7
[18] = tested on: NCI-H460
[19] = tested on: NCI/ADR-RES
[20] = tested on: OVCAR-3

Measured: GI50

NC(=O)CCC(N=C(N)c1csc(C2OC(CO)C(O)C2O)n1)C(=O)O (stereo not drawn)
inactive: [1] > 100 µM | [2] > 100 µM | [3] > 100 µM | [4] > 100 µM | [5] > 100 µM | [6] > 100 µM | [7] > 100 µM | [8] > 100 µM | [9] > 100 µM | [10] > 100 µM | [11] > 100 µM | [12] > 100 µM | [13] > 100 µM

N/C(=N\O)N/N=C\c1c(O)cc(O)cc1O
inactive: [2] > 72.9 µM | [3] 44.2 µM | [14] > 94.2 µM | [15] 54.8 µM | [4] 44.5 µM | [5] 36.4 µM | [6] 60.8 µM | [16] > 71.8 µM | [17] 36.4 µM | [18] 49.5 µM | [8] 39.7 µM | [19] 79.6 µM | [20] > 65.9 µM | [9] 15.6 µM | [10] > 47.6 µM | [11] > 100 µM

CC(C)(C)C1(c2ccc(C3(c4ccccc4)Oc4ccccc4S3)[nH]2)Oc2ccccc2S1 (stereo not drawn)
inactive: [1] > 100 µM | [3] > 100 µM | [14] > 100 µM | [15] 26.8 µM | [4] > 100 µM | [6] > 100 µM | [7] > 100 µM | [16] > 100 µM | [18] > 100 µM | [8] > 100 µM | [20] > 100 µM | [9] 96.2 µM | [11] > 100 µM | [12] > 100 µM | [13] 32.5 µM

Cc1[nH]c(=O)[nH]c(=O)c1/C=C/C(=O)NC(CO)C[S+]([O-])Cc1ccccc1 (stereo not drawn)
inactive: [2] > 300 µM | [3] > 300 µM | [14] > 300 µM | [15] > 190 µM | [4] > 300 µM | [5] 299 µM | [6] > 300 µM | [16] > 300 µM | [17] > 300 µM | [18] > 300 µM | [8] > 300 µM | [19] > 300 µM | [20] > 300 µM | [9] > 300 µM | [10] 296 µM | [11] > 300 µM | [13] > 300 µM

C=CC12CN(C)C3C4COC(CC41)C1(C(=O)Nc4ccccc41)C32 (stereo not drawn)
inactive: [2] > 149 µM | [3] > 144 µM | [14] 158 µM | [15] > 140 µM | [4] > 200 µM | [5] 168 µM | [6] > 150 µM | [16] > 148 µM | [17] > 200 µM | [18] 166 µM | [8] 44.7 µM | [19] > 165 µM | [20] > 200 µM | [9] > 195 µM | [10] 146 µM | [11] 176 µM | [13] 21.5 µM

O=C1C(Cl)N(c2ccc(Cl)cc2Cl)C1c1c[nH]c2ccccc12 (stereo not drawn)
inactive: [2] > 100 µM | [3] > 100 µM | [14] 91.2 µM | [15] 44.5 µM | [4] > 100 µM | [5] > 100 µM | [7] > 100 µM | [16] > 100 µM | [18] > 100 µM | [8] > 100 µM | [20] 78.3 µM | [9] > 100 µM | [10] 6.49 µM | [12] > 100 µM | [13] > 100 µM

Cn1cnc(/C=C/C#N)c1
inactive: [1] > 100 µM | [2] > 100 µM | [15] > 100 µM | [4] > 100 µM | [5] > 100 µM | [7] > 100 µM | [17] > 100 µM | [18] > 100 µM | [8] > 100 µM | [19] > 100 µM | [20] > 100 µM | [10] > 100 µM | [12] > 100 µM

COC(=O)C1=C(O)C(C(=O)OC)[C@@]2(O)[C@@H](C(=O)OC)CC[C@@H]1[C@@H]2C(=O)OC (stereo partly drawn)
inactive: [1] 39.2 µM | [14] 30.4 µM | [5] 21.6 µM | [6] 21.3 µM | [7] 22.6 µM | [17] 35.6 µM | [18] 16.1 µM | [8] 10.6 µM | [20] 21.3 µM | [9] 27.2 µM | [10] 17.9 µM | [12] 23 µM

C=CCn1c2ccccc2c2c(C)c3cnccc3c(C)c21
inactive: [2] 6.4 µM | [14] 4.48 µM | [15] 1.92 µM | [4] 8.75 µM | [5] 4.38 µM | [6] 6.82 µM | [16] 9.23 µM | [17] 5.52 µM | [18] 4.47 µM | [8] 5.52 µM | [19] 4.91 µM | [20] 11.1 µM | [9] 3.61 µM | [10] 13.2 µM | [11] 22.3 µM | [13] 12.4 µM

COc1cc2c(cc1OC)C1Cc3sccc3CN1CC2 (stereo not drawn)
inactive: [1] > 100 µM | [3] > 100 µM | [14] > 100 µM | [15] 76.2 µM | [4] > 100 µM | [6] > 100 µM | [7] 72.4 µM | [16] > 100 µM | [18] > 100 µM | [8] > 100 µM | [20] > 100 µM | [9] > 100 µM | [10] > 100 µM | [11] > 100 µM | [12] > 100 µM | [13] > 100 µM

CCOC(=O)C(NC(C)=O)(Nc1ccc(F)cc1)C(F)(F)F (stereo not drawn)
inactive: [1] 2.62 µM | [2] > 100 µM | [14] 13.4 µM | [15] > 100 µM | [4] 90.8 µM | [5] 83.2 µM | [6] > 100 µM | [7] 20.2 µM | [17] 28.2 µM | [18] 7.21 µM | [8] > 100 µM | [19] 8.13 µM | [20] > 100 µM | [9] 72.1 µM | [10] > 100 µM | [12] > 100 µM

O=c1c(Cc2ccc(Cc3c(O)oc4ccccc4c3=O)cc2)c(O)oc2ccccc12
inactive: [2] > 100 µM | [14] > 100 µM | [15] > 100 µM | [4] > 100 µM | [6] > 100 µM | [7] > 100 µM | [17] > 100 µM | [18] > 100 µM | [19] > 100 µM | [20] > 100 µM | [10] > 100 µM | [12] > 100 µM
